According to patent US9789096B2, “Methods and compositions for selective and targeted cancer therapy” (Board of Regents of the University of Texas System, priority 2013, dated 2017):
Read-outs that look alike come from different tables or passages of the source.

Experiments:
H2122 = test: Cell viability dose-response, H2122; format: cell-based, human; conditions: Homo sapiens
In short: (§1)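 Cells plated at 15% confluence in RPMI-1640 with 5% FBS and 2 mM L-glutamine, treated with compound in a 12-point, 3-fold dilution series from 50 micromolar, in duplicate. ATP measured by Cell Titer Glo after 4 days; IC50 taken from the dose-response curve.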

[1] = ADME for xenograft studies; format: in vivo
H2122 xenografts = test: In vivo efficacy, H2122 xenografts in NOD/SCID mice; design: species or system mouse; conditions: 25 mg/kg IP twice daily
Procedure: (§2) FIG. 6C. […] NOD/SCID mice were injected with either H2122 (sensitive) or H1155 (insensitive) cells subcutaneously on day 0. When tumors reached 200 cubic mm, treatment with SW203668 (listed as A2) or vehicle was initiated (as indicated by the arrow) with twice daily doses of 25 mg/kg, IP. Tumor size was measured every 3 days for the duration of the study. Data are plotted as mean±SEM; n=12 for each group.

H1155 xenografts = test: In vivo efficacy, H1155 xenografts in NOD/SCID mice; design: species or system mouse; conditions: 25 mg/kg IP twice daily
Procedure: as §2

[2] = tested on: 12 lung adenocarcinoma cell lines; test: Proliferation of the panel of 12 lung adenocarcinoma cell lines; format: cell-based, human
Procedure: (§3) FIG. 6A. […] Cell viability is plotted vs. compound concentration. Compound was added to cells plated at 15% confluence in 96-well plates in RPMI-1640 media supplemented with 5% Fetal Bovine Serum and 2 mM L-Glutamine. After 4 days of incubation, ATP levels were measured using Cell Titer Glo (Promega). Data are presented as the average of 2 replicates ±SEM.
To discover selective agents, twelve cell lines of diverse genotype were selected for analysis. 108 lung cancer cell lines were initially clustered into six groups based on mRNA expression of genes that underwent frequent copy number variation. Two cell lines were chosen from each group for high throughput chemical screening. All 12 of the chosen cell lines were derived from lung adenocarcinomas, eliminating both lineage and histology as confounders. None of the cell lines chosen for screening harbored EGFR mutations or ALK rearrangements, so that the final set represented a collection of diverse lung adenocarcinoma genotypes for which there are no targeted therapy.
The proliferative impact of each compound in the library was assayed by analyzing total ATP four days after administration of 2.5 μM in a single well. This first pass yielded 15,843 toxins defined as a compound where ATP levels were […] three standard deviations below the mean for at least one cell line. For each of these putative toxins, the average effect on proliferation was retested on each cancer cell line and a non-cancerous immortalized HBEC line (control), yielding a confirmation dataset.
(§4) In addition, N-acyl benzothiazoles was also discovered, such as 4-amino-N-(6-methoxybenzo[d]thiazol-2-yl)benzamide (ATB). We compared the proliferation of 12 lung adenocarcinoma cell lines and three HBEC lines after the addition of ATB.
(§5) We subsequently synthesized various derivatives that are both selective and potent (Tables 1 and 2). One leading candidate is a benzothiazole, SW202857, that inhibits proliferation in three of 12 adenocarcinoma cell lines at concentrations less than 10 nM.

H2122 cells [3] = test: Toxicity to H2122 cells with or without CYP4 inhibitor HET0016; format: cell-based, human
HBEC30KT = test: Cell viability (ATP, Cell Titer Glo, 4 days), HBEC30KT; format: cell-based, human; conditions: Homo sapiens, Tables 3 and 4; read-out: HBEC30KT IC50
H1155 = test: Cell viability dose-response, H1155; format: cell-based; conditions: Homo sapiens, NCI-H1155; Tables 3 and 4; read-out: IC50 (uM) vs indicated non-small cell lung cancer cell line H1155
Procedure: as §3
(§6) Selectivity may be measured by the half maximal inhibitory concentration (IC50), which, as used herein, is a measure of the effectiveness of a compound in killing cells. This quantitative measure indicates how much of a particular compound is needed to kill a particular cell population by half (e.g., as indicated by the amount of ATP). […] The IC50 can be determined by constructing a dose-response curve. The lower the IC50, the higher the potency, and the greater the difference between IC50 values for different cell lines (e.g., sensitive lines vs. insensitive lines, and sensitive lines vs. normal lines) the greater the selectivity. […]
(§7) With this information, we synthesized and tested a series of small molecules derived in conception from the oxalamide and chromone scaffold including N-acyl ureas, as shown in Tables 6-8. Each compound was tested in a 12-point dose-response study starting at 50 micromolar and decreasing in 3-fold increments to sub-nanomolar concentrations, in duplicate. Additionally, one or more additional cell line was tested in the same way.

H1395 = test: Cell viability dose-response, H1395; format: cell-based; conditions: Homo sapiens, NCI-H1395; Tables 3 and 4; read-out: IC50 (uM) vs indicated non-small cell lung cancer cell line H1395
Procedure: as §3, §6, §7

H1819 = test: Cell viability dose-response, H1819; format: cell-based, human; conditions: Homo sapiens, NCI-H1819, Tables 3 and 4; read-out: IC50 (uM) vs indicated non-small cell lung cancer cell line H1819
In short: as §1

H1993 = test: Cell viability dose-response, H1993; format: cell-based; conditions: Homo sapiens, NCI-H1993; Tables 3 and 4; read-out: IC50 (uM) vs indicated non-small cell lung cancer cell line H1993
Procedure: as §3, §6, §7

H2009 = test: Cell viability dose-response, H2009; format: cell-based, human; conditions: Homo sapiens, NCI-H2009; Tables 3 and 4; read-out: IC50 (uM) vs indicated non-small cell lung cancer cell line H2009
In short: (§8)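 Compound is titrated onto cells seeded at 15% confluence and incubated four days in 5% FBS RPMI-1640 medium. ATP-based luminescence gives viability; duplicate means ±SEM define the dose-response curve.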

H2073 = test: Cell viability dose-response, H2073; format: cell-based, human; conditions: Homo sapiens, NCI-H2073, Tables 3 and 4; read-out: IC50 (uM) vs indicated non-small cell lung cancer cell line H2073
In short: as §8

H460 = test: Cell viability dose-response, H460; format: cell-based; conditions: Homo sapiens, NCI-H460; Tables 3 and 4; read-out: IC50 (uM) vs indicated non-small cell lung cancer cell line H460
Procedure: as §3, §6, §7

HCC4017 = test: Cell viability dose-response, HCC4017; format: cell-based, human; conditions: Homo sapiens, HCC4017, Tables 3 and 4; read-out: IC50 (uM) vs indicated non-small cell lung cancer cell line HCC4017
In short: as §8

HCC44 = test: Cell viability dose-response, HCC44; format: cell-based, human; conditions: Homo sapiens, HCC44, Tables 3 and 4; read-out: IC50 (uM) vs indicated non-small cell lung cancer cell line HCC44
In short: as §8

HCC95 = test: Cell viability dose-response, HCC95; format: cell-based; conditions: Homo sapiens, Tables 3 and 4, read-out: IC50 (uM) vs indicated non-small cell lung cancer cell line HCC95
Procedure: as §3, §6, §7

[4] = tested on: 3 human bronchial epithelial (HBEC) cell lines; test: Vitality of human bronchial epithelial (HBEC) cell lines; format: cell-based; conditions: at 10 μM
Procedure: as §4, §5

[5] = tested on: about 300 protein kinase enzymes; test: Kinase inhibition assays (EMD Millipore); format: biochemical, human
Procedure: (§9) Specifically, kinase inhibition assays were performed at EMD Millipore at 1, 10 and 100 nM SW202857 and individually optimized concentrations of ATP. […] Listed kinases are the human enzyme unless indicated: mouse (m), rat (r), yeast (y).

GSK3beta = target: T1, GSK3beta (Homo sapiens, UniProt P49841); test: Kinase inhibition assay (EMD Millipore), GSK3beta; format: biochemical; conditions: 100 nM
T1 construct: purchased EMD Millipore
Procedure: as §9

[6] = Stability in mouse liver S9 fractions; format: in vitro ADME
H2122 cells [7] = test: Metabolism by sensitive cells (HPLC/MS/MS); format: in vitro ADME, human
Procedure: FIGS. 9A-9D. Selective toxins selectively cross-link to SCD1 in sensitive cells and are selectively metabolized in sensitive cells. FIG. 9A. 12 NSCLC cell lines were incubated with SW208108 and processed as described in FIG. 7. […] FIG. 9B. […] FIG. 9C. […] Demethylation is the anticipated mode of metabolism. FIG. 9D. A representative benzothiazole is demethylated by sensitive cell lines. […] Values in FIGS. 9C and 9D were obtained by tandem HPLC/MS/MS.
In this context, 12 different NSCLC cell lines were treated with SW208108, lysed and clicked to a dye as previously described. […] To understand how SW208108 could selectively cross-link to SCD1 within some cell lines that expressed the enzyme but not other cell lines that expressed the same enzyme, we investigated the stability of a representative oxalamide in the presence of a sensitive and insensitive cell line. […] Similarly, a representative benzothiazole was metabolized by H2122 cells through, at least in part, the loss of the O-methyl group (FIG. 9D).

HopS62 = test: Cell viability dose-response, HopS62; format: cell-based; conditions: Homo sapiens; Table 4; read-out: IC50 (uM) vs indicated non-small cell lung cancer cell line HopS62
Procedure: as §3
Selectivity may be measured by the half maximal inhibitory concentration (IC50), which, as used herein, is a measure of the effectiveness of a compound in killing cells. This quantitative measure indicates how much of a particular compound is needed to kill a particular cell population by half (e.g., as indicated by the amount of ATP). […] The IC50 can be determined by constructing a dose-response curve. The lower the IC50, the higher the potency, and the greater the difference between IC50 values for different cell lines (e.g., sensitive lines vs. insensitive lines, and sensitive lines vs. normal lines) the greater the selectivity.
as §7, with “Additionally, one or more additional cell line was tested in the same way.” left out

[8] = NCI-H2122, Tables 3 and 4, read-out: IC50 (uM) vs indicated non-small cell lung cancer cell line H2122
[9] = NCI-H2122, Table 9, competitor, read-out: IC50 to H2122 cells

T1 sequence (P49841 whole entry): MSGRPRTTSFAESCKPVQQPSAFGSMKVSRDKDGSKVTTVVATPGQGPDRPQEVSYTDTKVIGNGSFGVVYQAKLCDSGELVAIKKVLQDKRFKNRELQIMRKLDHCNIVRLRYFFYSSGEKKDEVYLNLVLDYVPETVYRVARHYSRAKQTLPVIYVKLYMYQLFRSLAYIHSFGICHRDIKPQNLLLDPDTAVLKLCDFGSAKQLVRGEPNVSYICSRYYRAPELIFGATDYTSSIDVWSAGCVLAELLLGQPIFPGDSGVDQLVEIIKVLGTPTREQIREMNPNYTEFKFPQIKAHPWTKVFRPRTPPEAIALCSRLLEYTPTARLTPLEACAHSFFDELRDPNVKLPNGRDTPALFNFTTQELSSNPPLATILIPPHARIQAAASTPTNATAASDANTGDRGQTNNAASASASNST

COc1ccc2nc(NC(=O)c3ccc(C(N)c4ccccc4)cc3)sc2c1 (stereo not shown) [SW203668]
IC50 (H2122; [8]): 0.035 µM | absorption, distribution, metabolism, and excretion (ADME) [1]: appropriate absorption, distribution, metabolism, and excretion | tumor growth inhibition in H2122 xenografts (H2122 xenografts): selective toxicity | tumor growth inhibition in H1155 xenografts (H1155 xenografts): but not H1155 xenografts

COc1ccc2nc(NC(=O)c3ccc(N)cc3)sc2c1 [ATB, 4-amino-N-(6-methoxybenzo[d]thiazol-2-yl)benzamide]
IC50 (H2122; NCI-H2122, read-out: IC50 against the most sensitive cell line (H2122)): 0.048 µM | IC50 ([2]; Homo sapiens, read-out: IC50 against 10 other cell lines, including the normal line): > 1000 nM

COc1ccc(CCNC(=O)NC(=O)c2ccc(Oc3ccccc3)cc2)cc1 [SW208456]
IC50 (H2122; [9]): 0.0134 µM | toxicity to H2122 cells in the presence of CYP450 inhibitor HET0016 (H2122 cells [3]): rescued

COc1ccc2nc(NC(=O)c3ccc(C(=O)c4ccccc4)cc3)sc2c1 [SW202857-1, 4-benzoyl-N-(6-methoxybenzo[d]thiazol-2-yl)benzamide]
IC50 (HBEC30KT): 22.8 µM | IC50 (H1155): 22.3 µM | IC50 (H1395): 31.8 µM | IC50 (H1819): 42.7 µM | IC50 (H1993): 21.3 µM | IC50 (H2009): 3.16 µM | IC50 (H2073): 0.0185 µM | IC50 (H2122; [9]): 0.00923 µM | IC50 (H2122; [8]): 0.00839 µM | IC50 (H460): 0.046 µM | IC50 (HCC4017): 32.6 µM | IC50 (HCC44): 0.0236 µM | IC50 (HCC95): 10.8 µM | toxic concentration against four sensitive cell lines ([2]; four sensitive cell lines): less than 50 nM | concentration that inhibits proliferation in three of 12 adenocarcinoma cell lines ([2]; three sensitive lines): less than 10 nM | toxic effect on the other 9 adenocarcinoma cell lines ([2]; up to 10 μM): no toxic effect | vitality of 3 human bronchial epithelial (HBEC) cell lines [4]: nor does it affect the vitality | inhibition of about 300 protein kinase enzymes in vitro ([5]; 0.10 μM): failed to inhibit | inhibition, all other kinases ([5]; highest concentration (100 nM)): ≤ 15% | inhibition at 0.1 µM (GSK3beta): 21% | stability in the presence of mouse liver S9 fractions [6]: chemically stable | metabolism by sensitive H2122 cells (H2122 cells [7]): demethylated

O=C(Nc1nc2c(s1)CCC2)c1ccc(C(=O)c2ccccc2)cc1 [SW208666-1]
IC50 (H2122; [8]): 0.26 µM | IC50 (HCC44): 3.52 µM | IC50 (HopS62): 0.09 µM

O=C(Nc1nc2ccccc2o1)c1ccc(C(=O)c2ccccc2)cc1 [SW208665-1]
IC50 (H2122; [9]): 0.8 µM | IC50 (H2122; [8]): 42.7 µM | IC50 (HCC44): 2.14 µM | IC50 (HopS62): 1.93 µM

O=C(NCCc1ccc(O)cc1)NC(=O)c1ccc(Oc2ccccc2)cc1 [SW208523]
IC50 (H2122; [9]): 0.0197 µM | toxicity to H2122 cells in the presence of CYP450 inhibitor HET0016 (H2122 cells [3]): toxic to H2122 cells in the presence or absence of the CYP450 inhibitor

CNC(=O)c1cccc(NC(=O)N2CCC(Oc3ccccc3Cl)CC2)c1 [compound 28c, reference compound]
toxicity to the same 4 non-small cell lung cancer cell lines ([2]; FIG. 8E): toxic
